The source of these data is patent US20250122455A1, “INTEGRATED SYSTEM FOR MULTIPLE CULTIVATIONS OF A BIOLOGICAL AGENT AND METHODS OF USE THEREOF” (The Hong Kong Polytechnic University, priority 2023, published 2025).

Assay [1] concerns PAO1 static biofilms. The assay can be described thus: Alamar blue viability of static biofilms in the BDR device after antibiotic treatment. The assay is classed as cell-based, Pseudomonas aeruginosa. As for the experimental part: The PAO1 culture was diluted 100-fold in ABTGC media and inoculated at 100 μl into each channel of the microfluidic model using a syringe and needle. Then the model was placed in a 37° C. incubator for 20 mins to allow bacteria to colonize the bottom of the microwells. ABTGC media containing tobramycin (Sigma) with concentrations of 0, 0.625, 1.25, 2.5, 5 ug/ml were injected into each chamber for 12 hrs treatment. Alamar blue cell viability reagent (Thermo Fisher) was diluted with culture media to 10% and injected into chambers, then incubated at 37° C. until the color changed from blue to pink. The colored liquid was collected from the chamber for direct measurement of OD600 nm and fluorescence (Ex: 560 nm, Em: 590 nm) using a microplate reader (Thermo Scientific Varioskan LUX Multimode Microplate Reader).
Background: Alamar Blue is a resazurin reagent that responds to reducing activity.

For assay [2], the system named is P. aeruginosa biofilms. The assay is classed as cell-based, Pseudomonas aeruginosa.

Regarding `NC[C@H]1O[C@H](O[C@H]2[C@H](O)[C@@H](O[C@H]3O[C@H](CO)[C@@H](O)[C@H](N)[C@H]3O)[C@H](N)C[C@@H]2N)[C@H](N)C[C@@H]1O` [tobramycin], the “Fluorescence level of Alamar blue” value in assay [1] (increasing tobramycin 0-5 ug/ml, 12 hrs treatment, without continuous flow, FIG. 22A) is reported as “decreased”. Moreover, the “Bacterial numbers (viable cell populations)” value in assay [1] (increasing tobramycin, static biofilms, FIG. 22B) is listed as “reducing bacterial numbers”.
Consider cellulase, for which the “Biofilm biomass change during EDA” value in assay [2] was “continuous reduction of biofilm from top to bottom of the microwells”.
